Data as given in PubChem BioAssay (NCI).
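Tested at 5 concentrations; 48 h exposure; 96-well plates; endpoints linearly interpolated, else capped at highest concentration. The concentration for full growth arrest is given as TGI.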

Columns and labels:
Assay in all cases: DTP human tumour cell line panel, 48 h
MDA-N = tested on: MDA-N
HS 578T breast = tested on: HS 578T breast
OVCAR-4 ovarian = tested on: OVCAR-4 ovarian
HOP-92 NSCLC = tested on: HOP-92 NSCLC
COLO 205 colon = tested on: COLO 205 colon
A498 renal = tested on: A498 renal
K-562 leukemia = tested on: K-562 leukemia
M14 melanoma = tested on: M14 melanoma

Cc1cc(S(=O)(=O)Nc2nnc3c(C(F)(F)F)cc(Cl)cn23)c(S)cc1Cl
TGI (MDA-N): > 100 µM
TGI (HS 578T breast): > 100 µM
TGI (OVCAR-4 ovarian): > 100 µM
TGI (HOP-92 NSCLC): > 100 µM
TGI (COLO 205 colon): > 100 µM
TGI (A498 renal): > 100 µM
TGI (K-562 leukemia): > 100 µM
TGI (M14 melanoma): > 100 µM

COC(=O)c1ccc(-c2nc(C#N)c(N)o2)cc1
TGI (HS 578T breast): > 100 µM
TGI (OVCAR-4 ovarian): > 100 µM
TGI (COLO 205 colon): > 100 µM
TGI (K-562 leukemia): > 100 µM
TGI (M14 melanoma): > 100 µM

CC(=O)N(CN1C(=O)CCC1C(=O)O)c1ccccc1 (stereo unspecified)
TGI (MDA-N): > 100 µM
TGI (HS 578T breast): > 100 µM
TGI (OVCAR-4 ovarian): > 100 µM
TGI (HOP-92 NSCLC): > 100 µM
TGI (COLO 205 colon): > 100 µM
TGI (A498 renal): > 100 µM
TGI (K-562 leukemia): > 100 µM
TGI (M14 melanoma): > 100 µM

CCN(CC)CCO/N=C1\CC[C@H]2[C@@H]3CC=C4C[C@@H](O)CC[C@]4(C)[C@H]3CC[C@]12C
TGI (MDA-N): 58.1 µM
TGI (HS 578T breast): > 100 µM
TGI (OVCAR-4 ovarian): 71.1 µM
TGI (COLO 205 colon): 26.1 µM
TGI (A498 renal): 35.9 µM
TGI (K-562 leukemia): 30.7 µM

O=C(/C=C/c1ccc(-c2ccccc2[N+](=O)[O-])o1)NCc1ccc(C(=O)NCCc2ccccc2)cc1
TGI (HS 578T breast): > 100 µM
TGI (OVCAR-4 ovarian): > 100 µM
TGI (HOP-92 NSCLC): > 100 µM
TGI (COLO 205 colon): > 100 µM
TGI (A498 renal): > 100 µM
TGI (K-562 leukemia): > 100 µM
TGI (M14 melanoma): > 100 µM

Cc1ccc(S(=O)(=O)n2cncc2CO)cc1
TGI (MDA-N): > 100 µM
TGI (HS 578T breast): > 100 µM
TGI (OVCAR-4 ovarian): > 100 µM
TGI (COLO 205 colon): > 100 µM
TGI (K-562 leukemia): > 100 µM
TGI (M14 melanoma): > 100 µM

CCOC(=O)c1ccc(C(=O)C(C(C)=O)C(=O)OC(C)(C)C)n1C (stereo unspecified)
TGI (MDA-N): > 100 µM
TGI (HS 578T breast): > 100 µM
TGI (OVCAR-4 ovarian): > 100 µM
TGI (COLO 205 colon): > 100 µM
TGI (A498 renal): > 100 µM
TGI (K-562 leukemia): > 100 µM
TGI (M14 melanoma): > 100 µM

O=C(CC(O)(C(F)(F)F)C(F)(F)F)C(CCCl)C(O)(C(F)(F)F)C(F)(F)F (stereo unspecified)
TGI (MDA-N): > 100 µM
TGI (HS 578T breast): > 100 µM
TGI (OVCAR-4 ovarian): > 100 µM
TGI (COLO 205 colon): 26.8 µM
TGI (A498 renal): 64.8 µM
TGI (K-562 leukemia): > 100 µM
TGI (M14 melanoma): > 100 µM

Cc1cc2ccccc2c[n+]1CC(O)C[n+]1cc2ccccc2cc1C
TGI (MDA-N): > 100 µM
TGI (HS 578T breast): > 100 µM
TGI (OVCAR-4 ovarian): > 100 µM
TGI (HOP-92 NSCLC): > 100 µM
TGI (COLO 205 colon): > 100 µM
TGI (A498 renal): > 100 µM
TGI (K-562 leukemia): > 100 µM
TGI (M14 melanoma): > 100 µM

CCc1nnc(-n2c(C)nc3cc(Cl)ccc3c2=O)s1
TGI (MDA-N): 49.1 µM
TGI (HS 578T breast): > 100 µM
TGI (OVCAR-4 ovarian): > 100 µM
TGI (HOP-92 NSCLC): 99.2 µM
TGI (COLO 205 colon): > 100 µM
TGI (A498 renal): > 100 µM
TGI (K-562 leukemia): > 100 µM
TGI (M14 melanoma): > 100 µM

O=C(O)C(CCc1ccccn1)c1ccccc1 (stereo unspecified)
TGI (MDA-N): > 100 µM
TGI (HS 578T breast): > 100 µM
TGI (OVCAR-4 ovarian): > 100 µM
TGI (HOP-92 NSCLC): > 100 µM
TGI (COLO 205 colon): > 100 µM
TGI (A498 renal): > 100 µM
TGI (K-562 leukemia): > 100 µM
TGI (M14 melanoma): > 100 µM

CN(CCc1ccc(Cl)c(Cl)c1)[C@H]1CCCC[C@H]1N1CCCC1
TGI (MDA-N): > 100 µM
TGI (HS 578T breast): > 100 µM
TGI (OVCAR-4 ovarian): > 100 µM
TGI (HOP-92 NSCLC): > 100 µM
TGI (COLO 205 colon): > 100 µM
TGI (A498 renal): > 100 µM
TGI (K-562 leukemia): > 100 µM
TGI (M14 melanoma): > 100 µM

COc1ccc(C2OC(=O)c3c2ccc2ccccc32)c(C)c1 (stereo unspecified)
TGI (MDA-N): 4.34 µM
TGI (HS 578T breast): > 100 µM
TGI (HOP-92 NSCLC): 80.1 µM
TGI (COLO 205 colon): 21.9 µM
TGI (A498 renal): 21.2 µM
TGI (K-562 leukemia): > 100 µM
TGI (M14 melanoma): > 100 µM

CN(C)CCOC(=O)COc1ccc(Cl)cc1
TGI (MDA-N): > 100 µM
TGI (OVCAR-4 ovarian): > 100 µM
TGI (HOP-92 NSCLC): > 100 µM
TGI (COLO 205 colon): > 100 µM
TGI (A498 renal): > 100 µM
TGI (K-562 leukemia): > 100 µM
TGI (M14 melanoma): > 100 µM

O=C1NC(=S)N/C1=C/c1ccccc1O
TGI (MDA-N): > 100 µM
TGI (HS 578T breast): > 100 µM
TGI (OVCAR-4 ovarian): > 100 µM
TGI (HOP-92 NSCLC): > 100 µM
TGI (COLO 205 colon): > 100 µM
TGI (M14 melanoma): > 100 µM

CC(NC(=O)/C(=C/c1ccccc1O)NC(=O)c1ccccc1)C(=O)O (stereo unspecified)
TGI (MDA-N): > 100 µM
TGI (HS 578T breast): 38.2 µM
TGI (OVCAR-4 ovarian): > 100 µM
TGI (HOP-92 NSCLC): > 100 µM
TGI (COLO 205 colon): > 100 µM
TGI (A498 renal): > 100 µM
TGI (K-562 leukemia): > 100 µM
TGI (M14 melanoma): > 100 µM

Nc1nc(Cl)cc(N=Nc2ccccc2)n1
TGI (HS 578T breast): > 100 µM
TGI (HOP-92 NSCLC): 7.53 µM
TGI (COLO 205 colon): > 100 µM
TGI (A498 renal): > 100 µM
TGI (K-562 leukemia): > 100 µM
TGI (M14 melanoma): > 100 µM

CC1=C(C(=O)OCCc2ccc([N+](=O)[O-])cc2)C(c2ccccc2[N+](=O)[O-])C(C(=O)OC(C)C)=C(C)N1 (stereo unspecified)
TGI (MDA-N): > 100 µM
TGI (HS 578T breast): > 100 µM
TGI (OVCAR-4 ovarian): > 100 µM
TGI (COLO 205 colon): > 100 µM
TGI (K-562 leukemia): > 100 µM
TGI (M14 melanoma): 36.7 µM

COC(=O)C(/C(=N/NC(=O)c1ccncc1)C(=O)Nc1ccccc1OC)c1nc2ccc(Cl)cc2[nH]c1=O (stereo unspecified)
TGI (MDA-N): > 100 µM
TGI (HS 578T breast): > 100 µM
TGI (OVCAR-4 ovarian): > 100 µM
TGI (HOP-92 NSCLC): > 100 µM
TGI (A498 renal): > 100 µM
TGI (K-562 leukemia): > 100 µM
TGI (M14 melanoma): > 100 µM

c1ccc(CCN2CCCCCC2)nc1
TGI (HS 578T breast): > 100 µM
TGI (OVCAR-4 ovarian): > 100 µM
TGI (HOP-92 NSCLC): > 100 µM
TGI (COLO 205 colon): > 100 µM
TGI (A498 renal): > 100 µM
TGI (K-562 leukemia): > 100 µM
TGI (M14 melanoma): > 100 µM

CN=C(Nn1cnnc1)OC
TGI (MDA-N): > 100 µM
TGI (HS 578T breast): > 100 µM
TGI (OVCAR-4 ovarian): > 100 µM
TGI (HOP-92 NSCLC): > 100 µM
TGI (COLO 205 colon): > 100 µM
TGI (A498 renal): > 100 µM
TGI (K-562 leukemia): > 100 µM
TGI (M14 melanoma): > 100 µM

C=CCC(CNC(=O)OCc1ccccc1)O[Si](C)(C)C(C)(C)C (stereo unspecified)
TGI (MDA-N): > 100 µM
TGI (HS 578T breast): > 100 µM
TGI (OVCAR-4 ovarian): > 100 µM
TGI (HOP-92 NSCLC): > 100 µM
TGI (COLO 205 colon): 30.8 µM
TGI (A498 renal): > 100 µM
TGI (K-562 leukemia): > 100 µM
TGI (M14 melanoma): > 100 µM

Clc1nc(-[n+]2ccc(-c3ccncc3)cc2)nc(Nc2ccccc2)c1Cl
TGI (MDA-N): > 100 µM
TGI (HS 578T breast): > 100 µM
TGI (OVCAR-4 ovarian): > 100 µM
TGI (HOP-92 NSCLC): > 100 µM
TGI (COLO 205 colon): > 100 µM
TGI (A498 renal): > 100 µM
TGI (K-562 leukemia): > 100 µM
TGI (M14 melanoma): > 100 µM

O=[N+]([O-])c1cccc([N+](=O)[O-])c1S(=O)(=O)c1ccccc1
TGI (MDA-N): 19.8 µM
TGI (HS 578T breast): 43.9 µM
TGI (HOP-92 NSCLC): 7.18 µM
TGI (COLO 205 colon): 19.4 µM
TGI (A498 renal): 36.1 µM
TGI (M14 melanoma): 6.59 µM

CCC1(CC)C(=O)CC[C@@]2(C)C1=CC[C@H]1[C@@H]3CC[C@H](O)[C@@]3(C)CC[C@@H]12
TGI (MDA-N): > 100 µM
TGI (HS 578T breast): 72.6 µM
TGI (OVCAR-4 ovarian): > 100 µM
TGI (HOP-92 NSCLC): > 100 µM
TGI (COLO 205 colon): 88.9 µM
TGI (A498 renal): 44.6 µM
TGI (K-562 leukemia): 37.3 µM
TGI (M14 melanoma): > 100 µM

CC(CCC(=O)O)[C@H]1CCC2[C@H]3C(CC[C@@]21C)[C@@]1(C)CCC(O)C[C@H]1C[C@@H]3O (stereo partly specified)
TGI (MDA-N): > 100 µM
TGI (OVCAR-4 ovarian): > 100 µM
TGI (HOP-92 NSCLC): > 100 µM
TGI (COLO 205 colon): > 100 µM
TGI (A498 renal): > 100 µM
TGI (K-562 leukemia): > 100 µM
TGI (M14 melanoma): > 100 µM

CCOC(=O)c1cc2c(OC(C)=O)ccc(OC(C)=O)c2s1
TGI (HS 578T breast): 5.51 µM
TGI (OVCAR-4 ovarian): 31.3 µM
TGI (HOP-92 NSCLC): 3.16 µM
TGI (COLO 205 colon): 4.81 µM
TGI (A498 renal): 12.5 µM
TGI (M14 melanoma): 3.26 µM
